In patent US20050107616A1, “Alpha-ketoamide derivatives as cathepsin k inhibitors” (priority 2001, published 2005):
Where two headings read alike, the source gives them in different places.

Legend:
[1] = target: human cathepsin S (Homo sapiens, UniProt P25774); test: Cathepsin S inhibition assay, fluorogenic substrate Cbz-Val-Val-Arg-AMC; assay type: biochemical; conditions: Table 2; human recombinant enzyme, pH 5.5, 30° C., 10 μM substrate; read-out: hCat S Ki
Experimental: All assays for cathepsin K were carried out with human and rat recombinant enzyme. Assays for cathepsins S Et V were also carried out with human recombinant enzyme. Assays for human cathepsins B. H. and L were carried out with enzyme, purchased from Athens Research and Technology, Inc., prepared from human liver tissue. Standard assay conditions for the determination of kinetic constants used a fluorogenic peptide substrate, typically (5S,8S)-13-amino-5-benzyl-13-imino-3-methylene-N-(4methyl-2-oxo-2H-chromen-7-yl)-6-oxo-1-phenyl-2-oxa-4,7,12-triazatridecane-8-carboxamide (Cbz-Phe-Arg-AMC), and were determined in 100 mM sodium acetate at pH 5.5 containing 10 mM dithiothreitol and 120 mM sodium chloride. A stock substrate solution of Cbz-Phe-Arg-AMC was prepared at a concentration of 50 mM in dimethyl sulfoxide. This substrate was diluted into the assay for a final substrate concentration of 10 μM in the rat cathepsin K, human cathepsin K, and human cathepsin B assays; a final substrate concentration of 5 μM in the human cathepsin L assay; and a final substrate concentration of 2 μM in the human cathepsin V assay.
A stock substrate solution of benzyl (1S)-1-{[((1S)-1-{[((1S)-4-{[amino(imino)methyl]amino}-1-{[(4-methyl-2-oxo-2H-chromen-7-yl)amino]carbonyl}butyl)amino]carbonyl}-2-methylpropyl)amino]carbonyl}-2-methylpropylcarbamate (Cbz-Val-Val-Arg-AMC) was prepared at a concentration of 10 mM in dimethyl sulfoxide. This substrate was diluted into the assay for a final substrate concentration of 10 μM in the human cathepsin S assay.
All assays contained 10% dimethyl sulfoxide. […] All assays were conducted at 30° C. Product fluorescence (excitation at 360 nm; emission at 440 nm, (except cathepsin H which used excitation at 340 nm; emission at 420 nm)) was monitored with a PerSeptive Biosystems Cytofluor II fluorescence plate reader. Product progress curves were generated over 2.3 h monitoring the formation of 7-amino-4-methylcoumarin product (or β-naphthalamide for cathepsin H).
Potential inhibitors were evaluated using the progress curve method. Assays were carried out in the presence of variable concentrations of test compound. Reactions were initiated by addition of buffered solutions of inhibitor and substrate to enzyme. Data analysis was conducted according to one of two procedures depending on the appearance of the progress curves in the presence of inhibitors. For those compounds whose progress curves were linear, the enzymatic activity (RATE) was plotted against the concentration of test compound, including inhibitor concentration of zero ([I]=0), and the IC50 determined from a fit of equation 1 to the data, RATE=Vmax/(1+([I]/IC50)) (1) where Vmax is the best fit estimate of the maximal enzymatic activity. Ki values were calculated from IC50 values using equation 2 assuming a competitive model. [formula]

[2] = target: T1, human cathepsin K (Homo sapiens, UniProt P43235); test: Cathepsin K inhibition assay, fluorogenic substrate Cbz-Phe-Arg-AMC, progress curve method; assay type: biochemical; conditions: human recombinant enzyme, pH 5.5, 30° C., 10 μM substrate, read-out: hCat K Ki
T1 construct: The proform of cathepsin K was converted to mature cathepsin K by brief exposure to pH 4; made in house; host or cells: baculovirus; Trichoplusia ni High Five cells (virus raised in Sf-9)
T1 sequence (P43235 115-329): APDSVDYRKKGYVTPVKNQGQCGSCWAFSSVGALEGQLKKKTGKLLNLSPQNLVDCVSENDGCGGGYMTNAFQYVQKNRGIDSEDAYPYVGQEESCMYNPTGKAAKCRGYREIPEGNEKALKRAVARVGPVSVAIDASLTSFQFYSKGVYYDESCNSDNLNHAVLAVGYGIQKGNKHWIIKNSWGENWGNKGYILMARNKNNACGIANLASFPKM
Outline: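 Recombinant human cathepsin K from insect cells, made mature by pH 4/L-cysteine activation, was assayed with 10 μM Cbz-Phe-Arg-AMC in 10% DMSO at 30° C. […]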

Chain of human cathepsin S (P25774 115-331): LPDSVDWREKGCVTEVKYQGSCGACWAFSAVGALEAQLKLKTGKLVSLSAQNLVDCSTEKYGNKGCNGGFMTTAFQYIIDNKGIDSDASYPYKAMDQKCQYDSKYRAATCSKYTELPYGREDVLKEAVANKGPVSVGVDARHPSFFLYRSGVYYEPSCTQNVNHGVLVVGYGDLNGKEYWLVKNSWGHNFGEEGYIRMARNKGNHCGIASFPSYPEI

| SMILES | Ki [1] [nM] | Ki ([2]; Table 1) [nM] | Ki ([2]; Table 2) [nM] |
| --- | --- | --- | --- |
| CCCC[C@H](NC(=O)O[C@H](Cn1cnc(-c2ccc(C(F)(F)F)cc2)c1)C(C)(C)C)C(=O)C(=O)Nc1ccnn1C1CCC1 [Example 35, (1S)-2,2-dimethyl-1-({4-[4-(trifluoromethyl)phenyl]-1H-imidazol-1-yl}methyl)propyl(1S)-1-[[(1-cyclobutyl-1H-pyrazol-5-yl)amino](oxo)acetyl]pentylcarbamate] | 1 to 100 | 1 to 100 | 1 to 100 |
| CCCC[C@H](NC(=O)O[C@H](c1nnc(-c2ccc(C(F)(F)F)cc2)o1)C(C)(C)C)C(=O)C(=O)Nc1ccn[nH]1 [Example 38, (1S)-2,2-dimethyl-1-{5-[4-(trifluoromethyl)phenyl]-1,3,4-oxadiazol-2-yl}propyl(1S)-1-[oxo(1H-pyrazol-5-ylamino)acetyl]pentylcarbamate] | 1 to 100 | 0.01 to 1 | 0.01 to 1 |
| CCCC[C@H](NC(=O)O[C@H](Cn1ccc(-c2ccc(C(F)(F)F)cc2)n1)C(C)(C)C)C(=O)C(=O)Nc1ccn[nH]1 [Example 1] | 0.01 to 1 | 0.01 to 1 | 0.01 to 1 |
| CCCC[C@H](NC(=O)O[C@H](Cn1cnc(-c2ccc(C(F)(F)F)cc2)c1)C(C)(C)C)C(=O)C(=O)Nc1ccn[nH]1 [Example 7, (1S)-2,2-dimethyl-1-({4-[4-(trifluoromethyl)phenyl]-1H-imidazol-1-yl}methyl)propyl(1S)-1-[oxo(1H-pyrazol-5-ylamino)acetyl]pentylcarbamate] | 0.01 to 1 | 0.01 to 1 | 0.01 to 1 |
| CCCC[C@H](NC(=O)O[C@H](c1nnc(-c2ccc(C(F)(F)F)cc2)o1)C(C)(C)C)C(=O)C(=O)NN1CCOC1=O [Example 39, (1S)-2,2-dimethyl-1-{5-[4-(trifluoromethyl)phenyl]-1,3,4-oxadiazol-2-yl}propyl(1S)-1-{oxo[(2-oxo-1,3-oxazolidin-3-yl)amino]acetyl}pentylcarbamate] | 1 to 100 | 0.01 to 1 | 0.01 to 1 |
| CCCC[C@H](NC(=O)O[C@H](Cn1cnc2cc(Cl)c(Cl)cc21)C(C)(C)C)C(=O)C(=O)Nc1ccn[nH]1 [Example 37, (1S)-1-[(5,6-dichloro-1H-benzimidazol-1-yl)methyl]-2,2-dimethylpropyl(1S)-1-[oxo(1H-pyrazol-5-ylamino)acetyl]pentylcarbamate] | 0.01 to 1 | 0.01 to 1 | 0.01 to 1 |
| CCCC[C@H](NC(=O)O[C@H](Cc1nnc(-c2ccc(F)cc2)o1)C(C)(C)C)C(=O)C(=O)Nc1ccnn1C (stereo in doubt) [Example 22, (1R)-1-{[5-(4-fluorophenyl)-1,3,4-oxadiazol-2-yl]methyl}-2,2-dimethylpropyl(1S)-1-[[(1-methyl-1H-pyrazol-5-yl)amino](oxo)acetyl]pentyl carbamate] | 100 to 10000 | 1 to 100 | 1 to 100 |
